Assay results reported in patent US4621057A (Noda Institute for Scientific Research, priority 1983, dated 1986).
Counter-ions that a name gives are not always drawn.

Tests used:
Format in all cases: biochemical, Pseudomonas sp. No. 15-1
[1] = tested on: N-acetylhexosamine oxidase; test: Activity inhibition by metalic ion or inhibitor; conditions: for inhibition of enzyme activity (in words): 1.8mM metalic ion
[2] = tested on: N-acetylhexosamine oxidase; test: Action and specificity for substrate; conditions: in the presence of oxygen
From the text: As shown in the following reaction formula, the present enzyme oxidizes N-acetylhexosamine in the presence of oxygen to form N-acetylhexosaminic acid and hydrogen peroxide.

[3] = tested on: N-acetylhexosamine oxidase; test: Activity stabilization by bovine serum albumin in heat treatment; conditions: 1 mg/ml in potassium phosphate buffer solution of pH 6.8; 10 minutes heat treatment
Description: Further, in 10 minutes heat treatment at 45° C., the present enzyme is stable between pH 3 and pH 9 and loses its activity rapidly at a more acidic region and slowly at a more alkaline region. In this experiment, the hydrogen peroxide method was adopted, and the residual activity of the present enzyme subjected to 10 minutes heat treatment in a potassium phosphate buffer solution of pH 6.8 at each temperature was compared with the residual activity of the same enzyme subjected to the same treatment in a potassium phosphate buffer solution of pH 6.8 containing 1 mg/ml of bovine serum albumin.

[4] = 1.8mM metalic ion or inhibitor, tris-hydrochloric acid buffer solution of pH 7.5
[5] = tris-hydrochloric acid buffer solution of pH 7.5

For O=[N+]([O-])[O-].[Ag+] [AgNO3], the “Residual activity (%)” value ([1]; 1.8mM, Phosphate buffer solution) was 5%.
For [Ca+2].[Cl-].[Cl-] [CaCl2], the “Residual activity (%)” value [1, 4] was 91%.
With O=S(=O)([O-])[O-].[Cd+2] [CdSO4] the “Residual activity (%)” value [1, 4] was 52% and the “inhibition of enzyme activity (in words)” value [1, 5] was “considerably”.
For O=S(=O)([O-])[O-].[Co+2] [CoSO4], the “Residual activity (%)” value [1, 4] was 75%.
O=S(=O)([O-])[O-].[Cu+2] [CuSO4] was tested, and the “Residual activity (%)” value [1, 4] was 74%.
With O=C(O)CN(CCN(CC(=O)O)CC(=O)O)CC(=O)O [EDTA, Etheylenediaminetetracetic acid sodium salt] the “Residual activity (%)” value ([1]; pH 7.5) was 87%.
O=S(=O)([O-])[O-].[Fe+2] [FeSO4] was tested, and the “Residual activity (%)” value [1, 4] was 15% and the “inhibition of enzyme activity (in words)” value [1, 5] was “inhibited greatly”.
In the case of NC(=O)CI [ICH2 CONH2], the “Residual activity (%)” value [1, 4] is reported as 90%.
With O=S(=O)([O-])[O-].[Mg+2] [MgSO4] the “Residual activity (%)” value [1, 4] was 86%.
In the case of O=S(=O)([O-])[O-].[Mn+2] [MnSO4], the “Residual activity (%)” value [1, 4] is reported as 84%.
CC(=O)N[C@H]1[C@H]([C@H](O)[C@H](O)CO)OC(O)(C(=O)O)C[C@@H]1O (stereo partly shown) [N-acetylneuraminic acid] was tested, and the “action of the enzyme on the substrate” value [2] was “hardly acts or does not all act”.
With O=S(=O)([O-])[O-].[Ni+2] [NiSO4] the “Residual activity (%)” value [1, 4] was 64% and the “inhibition of enzyme activity (in words)” value [1, 5] was “considerably”.
With c1cnc2c(c1)ccc1cccnc12 [O'--Phenanthroline] the “Residual activity (%)” value [1, 4] was 81%.
In the case of O=C(O)c1cc[c]([Hg][Cl])cc1 [PCMB, pChloromercurybenzoate], the “Residual activity (%)” value [1, 4] is reported as 67%.
With CC(=O)[O-].CC(=O)[O-].[Pb+2] [Pb(CH3 COO)2] the “Residual activity (%)” value [1, 4] was 42% and the “inhibition of enzyme activity (in words)” value [1, 5] was “considerably”.
With CCCCCCCCCCCCOS(=O)(=O)[O-].[Na+] [SDS, Sodium dodecylsulfate] the “Residual activity (%)” value [1, 4] was 87%.
O=S(=O)([O-])[O-].[Zn+2] [ZnSO4] was tested, and the “Residual activity (%)” value [1, 4] was 2% and the “inhibition of enzyme activity (in words)” value [1, 5] was “inhibited greatly”.
HgCl2 was tested, and the “Residual activity (%)” value [1, 4] was 17% and the “inhibition of enzyme activity (in words)” value [1, 5] was “inhibited greatly”.
bovine serum albumin was tested, and the “effect of addition on enzyme activity” value [3] was “stabilized and moreover slightly enhanced”.
